According to patent US20120015364A1, “METHOD FOR THE SELECTION OF ENDOTHELIAL CELLS DEATH INDUCERS VIA NETRIN-1 AND ITS APPLICATIONS” (CENTRE NATIONAL DE LA RECHERCHE SCIENTIFIQUE (CNRS), priority 2009, published 2012):
Peptide text beside a SMILES is read from it. * marks the point of attachment. Cbz = O=C(OCc1ccccc1)*; CH2F = FC*

What was measured:
[1] = test system: chick chorioallantoic membrane; assay: Chick chorioallantoic membrane (CAM) assay; type: in vivo; details: 8-day-old chick embryos, 3 days; netrin-1 150 ng/ml, z-VAD-fmk 20 nM, BAF 20 nM; p<0.02
Experimental: Chick chorioallantoic membrane assay (CAM) assay was performed as already described. White Leghorn eggs were incubated at 37° C. in a humidified atmosphere. After 72 hours of incubation, 3 ml albumen was removed and a square window was opened into the shell. The opening was closed with cellotape until day 8. Netrin-1 (150 ng/ml), z-VAD-fmk (Tebu; 20 nM), BAF (Sigma; 20 nM), or VEGF (Sigma) were then diluted in PBS and mixed with an equal volume of autoclaved 1% methylcellulose solution. Controls were prepared with vehicles only. Each sample solution (10 μl) was dropped on Parafilm and dried up. The methylcellulose disks were stripped off from the Parafilm and placed on a CAM of the 8-day-old chick embryos. After 3 days, CAMs were photographed and the angiogenic response was evaluated by measuring the number of secondary ectopic vessels sprouts under the methylcellulose disks using AxioVision Release 4.6 software. UNC5B silencing in CAM was achieved by injection of specific siRNA designed by Sigma-Proligo in CAM blood circulation at E.5, E.7 and E.9. Analysis was performed at E.11.

[2] = test system: murine aortic rings; assay: Aortic ring matrigel assay (ex vivo); type: cell-based, mouse; details: netrin-1 150 ng/ml, z-VAD-fmk 20 nM, BAF 20 nM, VEGF 13 ng/ml; day 4
Experimental: Aortic ring assays were performed as described by Nicosia and colleagues (Nicosia and Ottinetti, 1990). Aortas were resected from Balb/C mice of 6 to 8 weeks of age, cleaned of periadventitial fat and connective tissues, rinsed twice in ECGM and cut in rings of 1 to 1.5 mm length. One hundred microliters of Growth factor reduced Matrigel (BD Biosciences) was added to each well of a 48-well tissue culture plate (Costar) and allowed to solidify for 30 min. at 37° C. Aortic rings were placed on the matrix layer, embedded in 100 μl of Matrigel, and allowed to recover in complete growth medium (ECGM, Promocell) for 24 hours. They were then treated or not with netrin-1 (150 ng/ml), z-VAD-fmk (Tebu; 20 nM), BAF (Sigma; 20 nM) or VEGF (Sigma; 13 ng/ml) and photographed with a phase contrast microscope on day 4. Microvessels outgrowth total length was calculated using AxioVision Release 4.6 software.

[3] = test system: DAP kinase; assay: DAP kinase phosphorylation, Western blot; type: cell-based, human; details: HUVEC; netrin-1 in serum free medium 24 hours
Experimental: Endothelial cells seeded at 10 000 cells/cm^2 and treated or not with netrin-1 in serum free medium (Endothelium Cell Basal Medium, Promocell) for 24 hours were collected and lysed in 50 mM HEPES pH 7.6, 125 mM NaCl, 5 mM EDTA and 0.1% NP-40 buffer in the presence of protease inhibitors. Protein extracts were immunoblotted with anti-DAP-kinase and anti-phospho-DAP kinase antibodies (Sigma). For immunofluorescence analysis, cells were seeded on LabTek chamber slides and fixed 15 minutes in 4% PFA.

[4] = test system: HUAEC; assay: Caspase-3 activity assay (ApoAlert CPP32 kit, active caspase-3 immunostaining); type: cell-based, human; details: netrin 50 ng/ml, p<0.005
Experimental: (§1) Cell death assays were performed as described previously. Briefly, endothelial cells were seeded at 10 000 cells/cm2 in complete medium for 16 hours. Cell death was induced either by starvation in serum free medium (Endothelium Cell Basal Medium, Promocell) or by exposure to 50 μM etoposide. Netrin-1 was purchased from Axxora-Apotech. Cell death was scored by trypan blue exclusion assay as previously described. For detection of DNA fragmentation, treated cells cultured on coverslips were fixed 20 minutes in 4% paraformaldehyde (PFA) and Terminal deoxynucleodityl transferase mediated dUTP-biotin Nick End Labeling (TUNEL) was performed with 300 U/mL TUNEL enzyme (300 U/mL) and 6 μM biotinylated dUTP (Roche Diagnostics). Caspase-3 activity was measured using ApoAlert CPP32 kit from Clontech (USA) and by immunostaining on fixed cells using anti-active-caspase-3 antibody (Cell Signaling) as described in (Llambi et al., 2005; Tauszig-Delamasure et al., 2007). Toxilight assay was performed according to manufacturer's instructions (Lonza). For netrin-1 titration experiment, rat recombinant UNC5H2-Fc (R&D) was used at 1 μg/ml.

[5] = test system: HUVEC; assay: as above; type: cell-based, human; details: netrin 50 ng/ml, p<0.005
Experimental: Human umbilical vein and artery cells (Promocell, passages<8) were cultured in endothelial cell growth medium (ECGM, Promocell) supplemented with 2% serum (kit, Promocell) until they reach 80% confluence. HUVEC were transfected using the AMAXA Nucleofector system, according to manufacturer's instructions. In brief, 500 000 cells were resuspended in 100 μl HUVEC Nucleofector solution and transfected with 1 μg siRNA or 1.5 μg plasmid DNA and 0.5 μg GFP-encoding control plasmid. UNC5A, UNC5B and scramble siRNAs were designed by Sigma-Proligo. Plasmids encoding mutant DAP kinase (DAP kinase ΔCam and DAP kinase DD) were described previously (Llambi et al., 2005). After transfection, cells were cultured in 1% growth medium and collected after 24 hours.
Cell death assays were performed as described previously. Briefly, endothelial cells were seeded at 10 000 cells/cm2 in complete medium for 16 hours. Cell death was induced either by starvation in serum free medium (Endothelium Cell Basal Medium, Promocell) or by exposure to 50 μM etoposide. Netrin-1 was purchased from Axxora-Apotech. Cell death was scored by trypan blue exclusion assay as previously described. […] Caspase-3 activity was measured using ApoAlert CPP32 kit from Clontech (USA) and by immunostaining on fixed cells using anti-active-caspase-3 antibody (Cell Signaling) as described in (Llambi et al., 2005; Tauszig-Delamasure et al., 2007). […]

[6] = test system: HUVEC; assay: TUNEL staining of apoptosis; type: cell-based, human; details: netrin 50 ng/ml
Experimental: as §1

[7] = test system: HUVEC; assay: Cell death upon serum starvation, trypan blue exclusion; type: cell-based, human; details: netrin 50 ng/ml, p<0.005
Experimental: as §1

[8] = test system: HUAEC; assay: as above; type: cell-based, human; details: netrin 50 ng/ml, p<0.005
Experimental: as §1

[9] = test system: HUVEC; assay: Etoposide-induced cell death, Toxilight assay; type: cell-based, human; details: overnight treatment with 50 μM etoposide; p<0.05
Experimental: as §1

[10] = test system: HUAEC; assay: Etoposide-induced cell death, Toxilight assay; type: cell-based, human; details: overnight treatment with 50 μM etoposide; p<0.05
Experimental: as §1

[11] = test system: zebrafish embryos; assay: Apoptosis in zebrafish embryos (TUNEL staining, caspase-3 activity); type: in vivo; details: TUNEL immunostaining and caspase-3 activity; tsl-netrin-1a injected embryos
Experimental: Embryos were dechorionated using pronase enzymatic treatment and 6 ng of splice/translation blocking netrin-1, UNC5B and control morpholinos that were previously designed and characterized were injected alone or in combination in the high yolk of one to four-cells-stage embryos. A third splice-blocking morpholino specifically targeting netrin-1a was designed (GeneTools) and injected in embryos at the same dose. […] Embryos were raised in E3 medium supplemented with 0.003% phenylthiourea to inhibit pigment formation. Rescue of phenotype induced by netrin-1a silencing was tested by adding 40 nM BAF in the E3 medium 4 hours after morpholinos injection. For TUNEL staining, embryos were fixed at 48 hpf in 4% PFA overnight at 4° C. They were then rinsed 10 minutes in PBS-Tween 0.1% (PBST) and progressively dehydrated in successive methanol baths (25, 50, 75 and 100%). […] Caspase-3 activity assay was performed as described above on whole embryos at 24 h development.

[12] = test system: fli:egfp zebrafish embryos; assay: Morpholino knockdown of fli:egfp zebrafish embryos, trunk vasculature phenotype; type: in vivo
Experimental: Resource Center (University of Oregon) and maintained under standard breeding conditions at 28° C. (Lawson and Weinstein, 2002). Embryos were dechorionated using pronase enzymatic treatment and 6 ng of splice/translation blocking netrin-1, UNC5B and control morpholinos that were previously designed and characterized were injected alone or in combination in the high yolk of one to four-cells-stage embryos. A third splice-blocking morpholino specifically targeting netrin-1a was designed (GeneTools) and injected in embryos at the same dose. Finally, 3 ng of a translation-blocking morpholino targeting zebrafish ortholog of DAP kinase (GeneTools) was injected, leading to 35% decrease of DAP kinase mRNA expression in knocked-down embryos compared to control. Sequences of morpholinos are available upon request. Embryos were raised in E3 medium supplemented with 0.003% phenylthiourea to inhibit pigment formation. Rescue of phenotype induced by netrin-1a silencing was tested by adding 40 nM BAF in the E3 medium 4 hours after morpholinos injection. For TUNEL staining, embryos were fixed at 48 hpf in 4% PFA overnight at 4° C. They were then rinsed 10 minutes in PBS-Tween 0.1% (PBST) and progressively dehydrated in successive methanol baths (25, 50, 75 and 100%). […]

Molecule	neovessel formation in vicinity of methylcellulose discs [1]	capillary sprouting / microvessels formation from aortic rings [2]	DAP kinase phosphorylation [3]	reduced caspase-3 activity [4] [%]	reduced caspase-3 activity [5]	number of TUNEL positive cells [6]	HUVEC cell death [7]	HUAEC cell death [8]	HUVEC cell death upon etoposide [9]	HUAEC cell death upon etoposide [10]	increase of cell death after netrin-1a silencing [11]	embryos with PAV formation ([12]; spl-netrin-1a injected embryos treated with 40 nM BAF, n=54, 42.7% in untreated, p<0.0001) [%]	embryos displaying at least partial ISVs ([12]; tsl-netrin-1a knock-down embryos treated with BAF, 23.0% in controls, p<0.001) [%]
COC(=O)C[C@H](NC(=O)[C@H](C)NC(=O)[C@@H](NC(=O)OCc1ccccc1)C(C)C)C(=O)CF [z-VAD-fmk, reference compound] (Cbz-Val-Ala-Asp(OMe)-CH2F)	significant increase in neovessel formation	induced neocapillary tube formation	–	–	–	–	–	–	–	–	–	–	–
VEGF	significant increase in neovessel formation	enhanced capillary sprouting	–	–	–	–	–	–	–	–	–	–	–
netrin-1	significant increase in neovessel formation	enhanced capillary sprouting	increase in DAP kinase phosphorylation	≤ 40	up to 30%	decreased number of TUNEL positive cells	inhibited	inhibited	inhibits	inhibits	–	–	–
COC(=O)C[C@H](NC(=O)OC(C)(C)C)C(=O)CF [BAF]	significant increase in neovessel formation	induced neocapillary tube formation	–	–	–	–	–	–	–	–	rescued the increase of cell death	92.6	54.5
